Source: PMC6268909 (Molecules, 2012)
pIC50: −log10 of the molar value. Values after ≈ are worked out from the molar mass of the structure shown. Structures can show the parent of a compound that is named as a salt. Where two headings read alike, the source gives them in different places.

Experiments:
[1] = tested on: Magnaporthe oryzae P131; experiment: microbe, parasite or virus in culture; type: cell-based; details: Pyricularia oryzae, read-out: IC50, antimicrobial activity, M. or.
[2] = tested on: Agrobacterium tumefaciens ATCC 11158; experiment: microbe, parasite or virus in culture; type: cell-based; details: ATCC11158, 24 h, read-out: IC50, antimicrobial activity, A. tum.
[3] = tested on: Pseudomonas lachrymans ATCC 11921; experiment: microbe, parasite or virus in culture; type: cell-based; details: ATCC11921, 24 h, read-out: IC50, antimicrobial activity, P. lach.
[4] = tested on: Xanthomonas vesicatoria ATCC 11633; experiment: microbe, parasite or virus in culture; type: cell-based; details: ATCC11633, 24 h, read-out: IC50, antimicrobial activity, X. ves.
[5] = tested on: Bacillus subtilis ATCC 11562; experiment: microbe, parasite or virus in culture; type: cell-based; details: ATCC11562, 24 h, read-out: IC50, antimicrobial activity, B. sub.
[6] = tested on: Ralstonia solanacearum ATCC 11696; experiment: microbe, parasite or virus in culture; type: cell-based; details: ATCC11696, 24 h, read-out: IC50, antimicrobial activity, R. sol.
[7] = target: acetycholinesterase (AChE); parameters: method as in PMID 15787237; details: previously reported; cited from earlier work
[8] = tested on: Alternaria alternata; parameters: method as in PMID 15787237; details: cited from earlier work
[9] = target: T1, acetylcholinesterase (AChE) (Homo sapiens, UniProt P22303); experiment: biochemical
T1 construct: purchased Sigma-Aldrich (St. Louis, MO, USA)
T1 sequence (P22303 32-614, species assumed): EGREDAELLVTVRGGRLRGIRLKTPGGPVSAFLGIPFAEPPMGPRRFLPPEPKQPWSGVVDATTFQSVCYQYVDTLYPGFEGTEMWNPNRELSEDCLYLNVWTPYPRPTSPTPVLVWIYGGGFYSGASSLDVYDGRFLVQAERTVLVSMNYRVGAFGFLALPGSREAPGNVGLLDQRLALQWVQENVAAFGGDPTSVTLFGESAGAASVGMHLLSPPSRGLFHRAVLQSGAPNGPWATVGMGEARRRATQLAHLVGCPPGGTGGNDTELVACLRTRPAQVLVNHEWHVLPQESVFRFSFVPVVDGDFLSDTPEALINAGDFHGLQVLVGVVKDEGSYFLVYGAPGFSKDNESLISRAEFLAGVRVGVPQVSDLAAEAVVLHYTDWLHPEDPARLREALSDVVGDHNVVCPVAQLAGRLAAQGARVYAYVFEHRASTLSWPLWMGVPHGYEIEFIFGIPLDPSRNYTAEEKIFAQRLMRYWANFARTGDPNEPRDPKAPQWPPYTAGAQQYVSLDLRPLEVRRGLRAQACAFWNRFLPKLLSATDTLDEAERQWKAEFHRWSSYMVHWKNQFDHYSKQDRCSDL

[10] = tested on: Microbotryum violacerum; parameters: method as in earlier work; details: compound from endophytic fungus of Meliotus dentatus; cited from earlier work
[11] = tested on: Staphylococcus aureus; details: cited from earlier work
[12] = tested on: methicillin-resistant S. aureus; details: cited from earlier work
[13] = tested on: C. sphaerospermum; parameters: method as in PMID 20158153; details: compound from endophytic Penicillium sp.; cited from earlier work
[14] = tested on: Bacillus megaterium; parameters: method as in earlier work; details: compound from endophytic fungus of Meliotus dentatus; cited from earlier work
[15] = tested on: Cladosporium cladosporioides; parameters: method as in PMID 20158153; details: compound from endophytic Penicillium sp.; cited from earlier work
[16] = tested on: human colon carcinoma cells; details: cited from earlier work
[17] = tested on: various cultured mammalian cells; details: cited from earlier work

Compound | IC50 ([1]; P131, 7 h) | IC50 [2] | IC50 [3] | IC50 [4] | IC50 [5] | IC50 [6] | IC50, acetycholinesterase (AChE) inhibitory activity [7] | MIC [8] | pIC50 [9] | IC50 ([1]; P131, 7 h at 25 °C) | antifungal activity [10] | MIC [11] | MIC [12] | antifungal activity at concentration [13] | antibacterial activity [14] | antifungal activity at concentration [15] | mitochondrial apoptosis [16] | DNA strand breaks, micronuclei and gene mutations [17]
COC(=O)Nc1nc2ccccc2[nH]1 [carbendazim, reference compound] | 13 mg/L (≈ 68 µM) |  |  |  |  |  |  |  |  |  |  |  |  |  |  |  |  | 
[H]/N=C(/N)N[C@H]1[C@H](O)[C@@H](O)[C@H](O[C@@H]2O[C@@H](C)[C@](O)(C=O)[C@H]2O[C@@H]2O[C@@H](CO)[C@H](O)[C@@H](O)[C@@H]2NC)[C@@H](N/C(N)=N\[H])[C@@H]1O [streptomycin sulfate, reference compound] |  | 6.34 mg/L | 8.34 mg/L | 6.79 mg/L | 8.35 mg/L | 7.19 mg/L |  |  |  |  |  |  |  |  |  |  |  | 
COC1=CC2(C)OC(=O)c3c(O)cc(OC)cc3C2=C(O)C1=O (centres unmarked) [Botrallin (4), 1,7-dihydroxy-3,9-dimethoxy-4a-methyl-6H-dibenzo[b,d]pyran-2,6 (4aH)-dione] |  | 87.5 mg/L (≈ 275 µM) | 92.2 mg/L (≈ 290 µM) | 86.3 mg/L (≈ 271 µM) | 98.5 mg/L (≈ 309 µM) | 85.5 mg/L (≈ 269 µM) | 6.1 mg/L (≈ 19.2 µM) | 62.5 mg/L (≈ 196 µM) | 3.49 | 107 mg/L (≈ 337 µM) |  |  |  |  |  |  |  | 
CC1OC(=O)c2c(O)cccc2C1O (centres unmarked) [4,8-dihydroxy-3-methylbenzopyran-1-one] | 113 mg/L (≈ 584 µM) | 18.2 mg/L (≈ 93.8 µM) | 16.2 mg/L (≈ 83.3 µM) | 17.8 mg/L (≈ 91.7 µM) | 19.2 mg/L (≈ 99 µM) | 16.2 mg/L (≈ 83.6 µM) |  |  | 3.22 |  | antifungal activity | 8 mg/L (≈ 41.2 µM) | 8 mg/L (≈ 41.2 µM) | 10.0 µg/mL | strong antibacterial activity | 5.00 µg/mL |  | 
COc1cc(O)c2c(=O)oc3cc(O)c(Cl)c(C)c3c2c1 [Palmariol B (1), 2-chloro-3,7-dihydroxy-9-methoxy-1-methyl-6H-dibenzo[b,d]pyran-6-one] |  | 19.4 mg/L (≈ 63.1 µM) | 16.7 mg/L (≈ 54.6 µM) | 28.1 mg/L (≈ 91.7 µM) | 27.7 mg/L (≈ 90.2 µM) | 17.5 mg/L (≈ 57.1 µM) |  |  | 3.42 | 119 mg/L (≈ 387 µM) |  |  |  |  |  |  |  | 
COc1cc(O)c2c(=O)oc3cc(O)cc(C)c3c2c1 [Alternariol 9-methyl ether (3), 3,7-dihydroxy-9-methoxy-1-methyl-6H-dibenzo[b,d]pyran-6-one] |  | 28.8 mg/L (≈ 106 µM) | 27.1 mg/L (≈ 99.5 µM) | 30.1 mg/L (≈ 110 µM) | 34.3 mg/L (≈ 126 µM) | 29.2 mg/L (≈ 107 µM) |  |  | 3.30 | 123 mg/L (≈ 452 µM) |  |  |  |  |  |  | induce mitochondrial apoptosis | induce DNA strand breaks, micronuclei and gene mutations
